We go through three molecules from patent publication US9328088B2, “Luminescent probes for biological labeling and imaging, and process for preparing the same” (CENTRE NATIONAL DE LA RECHERCHE SCIENTIFIQUE, priority 2011, dated 2016).

“And” between values parts separate entries of the source, which are not always exact repeats. Identical values can stand only once.

Holding throughout (assay type): physicochemical
A short description of data set [1]: Emission properties: luminescence half-life τ and luminescence quantum yield φ in H2O and D2O. The following applies: for Emission τ (luminescence half-life): error estimated ±5%; for Emission φ (luminescence quantum yield): error estimated ±15%. The text has this:
The complexes according to the invention have varied applications, depending on the nature of the substituents of the pyridyl group of the ligand.
By way of example, all of the absorption and emission properties of the terbium complexes synthesized from ligands (I-1) to (I-4) in accordance with the invention are summarized in Table 1 below:
The parameters φ and τ represent, respectively, the luminescence quantum yields and the luminescence half-lives. They may be measured in water and in D2O.

Data set [2] can be described thus: Stability of the terbium complexes in various buffers (luminescence half-life τ). An excerpt:
By way of example, the stability of the terbium complexes synthesized from ligands (I-1) to (I-4) in accordance with the invention in various buffers is given in Table 2 below. By way of comparison, Table 2 also gives the stability of a terbium complex TbL4 of the prior art corresponding to the following formula: […]

The nature of data set [3]: Absorption properties of the terbium complexes. The conditions noted are these: 0.01M TRIS/HCl buffer at pH = 7.0. An excerpt: By way of example, all of the absorption and emission properties of the terbium complexes synthesized from ligands (I-1) to (I-4) in accordance with the invention are summarized in Table 1 below: […]

As to `CCOP(=O)([O-])CN(CC(=O)[O-])Cc1ccn(-c2cc(C#Cc3cc(OCCOC)c(C(=O)NCCCC(=O)[O-])cc3OCCOC)cc(-n3ccc(CN(CC(=O)[O-])CP(=O)([O-])OCC)n3)n2)n1.[Na+].[Na+].[Na+].[Na+].[Na+].[Tb+3]` [Tb(I-5)], the quantum yields entry in data set [1] was “virtually quantitative”. The “Emission τ (luminescence half-life)” value in data set [1] (D2O) is 0.0031 s; in data set [1] (H2O), 0.0026 s. In addition, the entries for the “Emission φ (luminescence quantum yield)” value in data set [1] (D2O) and in data set [1] (H2O) were 96% and 88%, respectively. The τ in data set [2] (H2O, estimated error ±5%) is recorded as 2.6 ms; in data set [2] (Phosphate 0.1M, pH = 7.0), 2.6 ms; in data set [2] (Tris 50 mM-Serum 50%, pH = 7.0) it was 2.5 ms; in data set [2] (Tris 0.1M, pH = 7.0) it was 2.6 ms; in data set [2] (Tris 0.1M-EDTA 10 mM, pH = 7.0), 2.6 ms; in data set [2] (Tris 0.1M-KF 400 mM, pH = 7.0), 2.5 ms. Also, the “Absorption λabs” value in data set [3] was 283 nm and 328 nm.
Consider `CCOP(=O)([O-])CN(CC(=O)[O-])Cc1ccn(-c2cc(C#Cc3cc(OCCOC)c(C#CCCCCC(=O)[O-])cc3OCCOC)cc(-n3ccc(CN(CC(=O)[O-])CP(=O)([O-])OCC)n3)n2)n1.[Na+].[Na+].[Na+].[Na+].[Na+].[Tb+3]` [Tb(I-6)], for which the “Emission τ (luminescence half-life)” value in data set [1] (D2O) was 0.0032 s; in data set [1] (H2O) it was 0.0026 s. Also, the “Emission φ (luminescence quantum yield)” value in data set [1] (D2O) was 35%; in data set [1] (H2O), 26%. The τ is 2.6 ms in data set [2] (H2O, estimated error ±5%); 2.6 ms in data set [2] (Phosphate 0.1M, pH = 7.0); 2.3 ms in data set [2] (Tris 50 mM-Serum 50%, pH = 7.0); 2.4 ms in data set [2] (Tris 0.1M, pH = 7.0); 2.5 ms in data set [2] (Tris 0.1M-EDTA 10 mM, pH = 7.0); 2.3 ms in data set [2] (Tris 0.1M-KF 400 mM, pH = 7.0). For the same molecule, the “Absorption λabs” value in data set [3] was 275 nm and 328 nm.
As for `CCOP(=O)([O-])CN(Cc1ccn(-c2cc(C#Cc3cc(OCCOC)c(C#CCCCCC(=O)[O-])cc3OCCOC)cc(-n3ccc(CN(CP(=O)([O-])OCC)CP(=O)([O-])OCC)n3)n2)n1)CP(=O)([O-])OCC.[Na+].[Na+].[Na+].[Na+].[Na+].[Tb+3]` [Tb(I-8)], the “Emission τ (luminescence half-life)” value in data set [1] (D2O) was 0.0035 s; in data set [1] (H2O), 0.0032 s. Further, the entries for the “Emission φ (luminescence quantum yield)” value in data set [1] (D2O) and in data set [1] (H2O) were 30% and 26%, respectively. The τ was 3.2 ms in data set [2] (H2O, estimated error ±5%); 3.2 ms in data set [2] (Phosphate 0.1M, pH = 7.0); 3.0 ms in data set [2] (Tris 50 mM-Serum 50%, pH = 7.0); 3.1 ms in data set [2] (Tris 0.1M, pH = 7.0); 3.1 ms in data set [2] (Tris 0.1M-EDTA 10 mM, pH = 7.0); 3.0 ms in data set [2] (Tris 0.1M-KF 400 mM, pH = 7.0). In addition, the “Absorption λabs” value in data set [3] was 272 nm and 327 nm.
